Patent US6869935B2, “Gene Therapy for proliferative vitreoretinopathy” (priority 1996, dated 2005)
Values after ≈ are worked out from the molar mass of the structure shown.

Key:
[1] = test system: HSV-tk positive RDFs; experiment: In vitro sensitivity to ganciclovir (XTT assay), HSV-tk positive RDFs; assay type: cell-based, rabbit; settings: Oryctolagus cuniculus, 72 hr of incubation, read-out: IC50 (concentration required for 50% cytotoxicity)
Description: (§1) The sensitivity of HSV-tk positive RDFs (100% HSV-tk transduced RDFs) and HSV-tk negative RDFs to ganciclovir was determined by using a tetrazolium-based calorimetric assay (XTT assay) (Scudiero et al., Cancer Research, Vol. 48, pgs. 4827-4833 (1988); Roehm et al., J. Immunol. Methods, Vol. 142, pgs. 257-265 (1991)). HSV-tk positive RDFs and HSV-tk negative RDFs were seeded at a density of 5×10^3 cells/well of 96-well culture plates (Corning) and incubated with DMEM-10 at 37° C. in 5% CO2 overnight. Then cells were treated with DMEM-10 containing various concentrations of ganciclovir (GCV; Cytovene; Syntex Inc., Palo Alto, Calif.) or only DMEM-10. After a total of 72 hr incubation, XTT assay was performed using a kit (cell proliferation II; Boehringer Mannheim, Indianapolis, Ind.). The results were read on a microplate reader (MR700; Dynatech Laboratories, Inc., Chantilly, Va.).

[2] = test system: HSV-tk negative RDFs; experiment: In vitro sensitivity to ganciclovir (XTT assay), HSV-tk negative RDFs; assay type: cell-based, rabbit; settings: concentration range 0.001-50 μg/ml
Description: as §1

[3] = test system: mixtures of HSV-tk-positive and -negative RDFs; experiment: In vitro bystander effect, cocultures of HSV-tk positive and negative cells; assay type: cell-based, rabbit; settings: 1 μg/ml ganciclovir; 3 days of incubation; effect depended on percentage of HSV-tk positive cells
Description: To determine the cytotoxic effect of a small number of HSV-tk positive cells on neighboring HSV-tk-negative cells, cocultures of HSV-tk positive cells and HSV-tk-negative cells were performed by mixing these two cells in varying proportions. Briefly, mixtures of HSV-tk-positive and -negative RDFs (2.0×10^4 cells/well) were seeded at various mixing ratios (0, 1.0, 2.5, 5.0, 10, and 100% HSV-tk-positive cells of total cells) in 24-well culture plates (Corning) and incubated at 37° C. in 5% CO2 overnight. Cells were then treated with 1 μg/ml ganciclovir for 3, 5, and 7 days. The number of cells was counted with a Coulter counter (Coulter Electronics, Inc., Hialeah, Fla.).

[4] = test system: experimental proliferative vitreoretinopathy (HSV-tk positive/negative RDFs); experiment: In vivo bystander effect in experimental proliferative vitreoretinopathy; design: species or system pigmented rabbits
Description: The right eye was used from each of 20 pigmented rabbits of both sexes, weighing 2.5 to 3.5 kg each. Vitrectomy was performed in the same manner as described above. One week after vitrectomy, group D (n=7) received an injection into the vitreous cavity of a mixture of 0.25×10^4 homologous HSV-tk positive RDFs (5% of total cells) and 4.75×10^4 homologous HSV-tk negative RDFs (95% of total cells). Group E (n=7) received a mixture of 0.05×10^4 homologous HSV-tk positive RDFs […] HSV-tk negative RDFs (95% of total cells). Group F (n=6) received 5.0×10^4 homologous HSV-tk negative RDFs as a control. All eyes received 200 μg of ganciclovir (0.1 ml of solution dissolved in distilled water) just after the cell injection and on day 4. Indirect ophthalmoscopic examinations were performed in a masked fashion on days 4, 7, 14 and 28. Clinical severity of PVR was graded from 0 to 5 as described above.

[5] = test system: fibroblasts bearing the HSV-TK gene; settings: rabbits; intraocular injection of fibroblasts bearing the HSV-TK gene; cited from earlier work

SMILES: Nc1nc(O)c2ncn(COC(CO)CO)c2n1 [ganciclovir]
- IC50 [1]: 0.1 µg/mL (≈ 0.392 µM)
- Toxicity to HSV-tk negative RDFs [2]: no significant toxicity
- Proliferation of co-culturing cells [3]: inhibited proliferation of co-culturing cells
- Retinal detachment (stages 3-5) ([4]; group D (5% HSV-tk positive RDFs), 200 μg ganciclovir intravitreal after cell injection and day 4, day 4 and day 7): no retinal detachment
- Retinal detachment (stages 3-5) ([4]; group D (5% HSV-tk positive RDFs), 200 μg ganciclovir, day 14 and day 28): No eyes showed retinal detachment
- Retinal detachment (stages 3-5) ([4]; group E (1% HSV-tk positive RDFs), 200 μg ganciclovir, day 4 and day 7): no retinal detachment
- Eyes with retinal detachment (stages 3-5) ([4]; group E (1% HSV-tk positive RDFs), 200 μg ganciclovir, day 14 and day 28): 14.3%
- Eyes with retinal detachment (stages 3-5) ([4]; group F (100% HSV-tk negative RDFs), 200 μg ganciclovir, day 4): 16.7%
- Eyes with retinal detachment (stages 3-5) ([4]; group F (100% HSV-tk negative RDFs), 200 μg ganciclovir, day 7): 50%
- Eyes with retinal detachment (stages 3-5) ([4]; group F (100% HSV-tk negative RDFs), 200 μg ganciclovir, day 14 and day 28): 66.7%
- Experimental PVR [5]: inhibited
